Measured values taken from patent US20090192142A1, “USE OF CARBAMAZEPINE DERIVATIVES FOR THE TREATMENT OF AGITATION IN DEMENTIA PATIENTS” (priority 2004, published 2009).

Tested on: community-dwelling elderly patients diagnosed with Alzheimer's disease (behavioral agitation)
Assay: 8-week, open-label, single-arm study of oxcarbazepine for behavioral agitation in Alzheimer's disease patients
Assay type: in vivo, human
Conditions: for change from baseline in Cohen-Mansfield Agitation Inventory (CMAI) score (mean±SD): baseline 60.6±14.7, mean oxcarbazepine daily dose 340 mg/day (range 150-552 mg/day), p≦0.0002
Protocol: In an 8-week, open-label, single-arm study are recruited twenty-six patients community-dwelling elderly patients (>63 years of age) diagnosed with Alzheimer's disease. After a 1-week screening period to assess each patient's agitation level, oxcarbazepine 150 mg/day treatment is initiated and titrated by 150 mg/day every 3-7 days to a maximum of 1200 mg/day with a mean oxcarbazepine daily dose of 340 mg/day (range 150-552 mg/day). The primary outcome measure is improvement in behavioral agitation, based on the 38-item Cohen-Mansfield Agitation Inventory (CMAI) that evaluates the prevalence of pathologic and disruptive agitated behavior. Secondary evaluations include effects on neuropsychiatric symptoms, cognitive impairment, global functioning, and tolerability.
Significant reductions in CMAI score from baseline (mean±SD: 60.6±14.7) occur at each time point (mean±SD change from baseline on Day 14: −16.9±19.7, Day 28: −22.6±19.0, Day 56: −20.8±19.6; all p≦0.0002). […] Cognitive performance and global functioning remain stable throughout the study.

[1] = patients with Alzheimer's disease, open-label prospective study

Structure (SMILES): NC(=O)N1c2ccccc2CC(=O)c2ccccc21 [oxcarbazepine, 10-oxo-10,II-dihydro-5H-dibenz(b,f)azepine-5-carboxamide]
- change from baseline in Cohen-Mansfield Agitation Inventory (CMAI) score (mean±SD) (Day 14): −16.9±19.7
- change from baseline in Cohen-Mansfield Agitation Inventory (CMAI) score (mean±SD) (Day 28): −22.6±19.0
- change from baseline in Cohen-Mansfield Agitation Inventory (CMAI) score (mean±SD) (Day 56): −20.8±19.6
- mean Neuropsychiatric Inventory score (each time point, all p≦0.02 versus screening): Significant improvement
- efficacy in the treatment of agitation [1]: effective
- tolerability [1]: generally well tolerated
- cognitive performance (throughout the 8-week study): remain stable
- global functioning (throughout the 8-week study): remain stable
